# Reference: publication PMC10293011, “An allosteric pan-TEAD inhibitor blocks oncogenic YAP/TAZ signaling and overcomes KRAS G12C inhibitor resistance” (Nature Cancer, 2023)
# pIC50: −log10 of the molar value.
# Molecular target: T1, TEAD3 (Homo sapiens, UniProt Q99594)
# T1 construct: with YAP peptide (amino acids 50–100)
# Test: TEAD3–YAP TR-FRET with purified protein (IC50); lipid displacement TR-FRET
# Type: binding
# T1 sequence (Q99594 216-435): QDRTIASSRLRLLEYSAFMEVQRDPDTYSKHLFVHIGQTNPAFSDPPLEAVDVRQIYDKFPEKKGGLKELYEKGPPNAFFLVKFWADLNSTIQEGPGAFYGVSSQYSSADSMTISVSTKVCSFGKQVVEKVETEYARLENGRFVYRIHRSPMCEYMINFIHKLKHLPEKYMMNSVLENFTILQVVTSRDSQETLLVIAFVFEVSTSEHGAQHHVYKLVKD
# T1 sequence (P46937 50-100 partner): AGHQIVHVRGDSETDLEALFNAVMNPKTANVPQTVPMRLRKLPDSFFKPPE
smiles,measurement,value
CCOC(=O)c1cnn2c(=O)cc(-c3ccc(C(F)(F)F)cc3)[nH]c12 [compound 1],pIC50,5.85
